Test results as given in US8802688B2, “Substituted acetyl-coa carboxylase inhibitors” (Pfizer Inc., priority 2011, dated 2014).

What was measured:
[1] = molecular target: T1, recombinant human ACC1 (rhACC1) (Homo sapiens, UniProt Q13085, DEL44-44); experiment: recombinant hACC1 Transcreener ADP detection FP assay; format: biochemical; settings: 50 μM ATP, 30 μM acetyl-CoA
T1 construct: recombinant baculovirus containing full length human ACC1 cDNA; made in house; host or cells: SF9 insect cells, recombinant baculovirus
Experimental: (§1) For example direct inhibition of ACC activity, for the compound of Formula (I) was determined using preparations of recombinant human ACC1 (rhACC1) and recombinant human ACC2 (rhACC2). Representative sequences of the recombinant human ACC1 and ACC2 that can be used in the assay are provided herein as SEQ ID NO. 1 and SEQ. ID NO. 2, respectively.
[1] Preparation of rhACC1. Two liters of SF9 cells, infected with recombinant baculovirus containing full length human ACC1 cDNA, were suspended in ice-cold lysis buffer (25 mM Tris, pH 7.5; 150 mM NaCl; 10% glycerol; 5 mM imidazole (EMD Bioscience; Gibbstown, N.J.); 2 mM TCEP (BioVectra; Charlottetown, Canada); Benzonase nuclease (10000 U/100 g cell paste; Novagen; Madison, Wis.); EDTA-free protease inhibitor cocktail (1 tab/50 mL; Roche Diagnostics; Mannheim, Germany). Cells were lysed by 3 cycles of freeze-thaw and centrifuged at 40,000×g for 40 minutes (4° C.). Supernatant was directly loaded onto a HisTrap FF crude column (GE Healthcare; Piscataway, N.J.) and eluted with an imidazole gradient up to 0.5 M over 20 column volumes (CV). ACC1-containing fractions were pooled and diluted 1:5 with 25 mM Tris, pH 7.5, 2 mM TCEP, 10% glycerol and direct loaded onto a CaptoQ (GE Healthcare) column and eluted with an NaCl gradient up to 1 M over 20 CV's. Phosphate groups were removed from purified ACC1 by incubation with lambda phosphatase (100 U/10 μM target protein; New England Biolabs; Beverly, Mass.) for 14 hours at 4° C.; okadaic acid was added (1 μM final concentration; Roche Diagnostics) to inhibit the phosphatase. Purified ACC1 was exchanged into 25 mM Tris, pH 7.5, 2 mM TCEP, 10% glycerol, 0.5 M NaCl by 6 hour dialysis at 4° C. Aliquots were prepared and frozen at −80° C.
[2] Measurement of rhACC1 inhibition. hACC1 was assayed in a Costar #3676 (Costar, Cambridge, Mass.) 384-well plate using the Transcreener ADP detection FP assay kit (Bellbrook Labs, Madison, Wis.) using the manufacturer's recommended conditions for a 50 μM ATP reaction. The final conditions for the assay were 50 mM HEPES, pH 7.2, 10 mM MgCl2, 7.5 mM tripotassium citrate, 2 mM DTT, 0.1 mg/mL BSA, 30 μM acetyl-CoA, 50 μM ATP, and 10 mM KHCO3 Typically, a 10 μl reaction was run for 120 min at 25° C., and 10 μl of Transcreener stop and detect buffer was added and the combination incubated at room temp for an additional 1 hour. The data was acquired on a Envision Fluorescence reader (Perkinelmer) using a 620 excitation Cy5 FP general dual mirror, 620 excitation Cy5 FP filter, 688 emission (S) and a 688 (P) emission filter.
(§2) The results using the recombinant hACC1 and recombinant hACC2 Transcreener assays described above are summarized in the table below for the Compounds of Formula (I) exemplified in the Examples above.

[2] = molecular target: T2, recombinant human ACC2 (rhACC2) (Homo sapiens, UniProt O00763, V2141I); experiment: recombinant hACC2 Transcreener ADP detection FP assay; format: biochemical; settings: 50 μM ATP, 30 μM acetyl-CoA
T2 construct: a full length Cytomax clone of ACC2 was purchased from Cambridge Bioscience Limited; made in house; host or cells: CHO cells, tetracycline-induced (PcDNA5 FRT TO-TOPO)
T2 sequence (O00763 whole entry V2141I): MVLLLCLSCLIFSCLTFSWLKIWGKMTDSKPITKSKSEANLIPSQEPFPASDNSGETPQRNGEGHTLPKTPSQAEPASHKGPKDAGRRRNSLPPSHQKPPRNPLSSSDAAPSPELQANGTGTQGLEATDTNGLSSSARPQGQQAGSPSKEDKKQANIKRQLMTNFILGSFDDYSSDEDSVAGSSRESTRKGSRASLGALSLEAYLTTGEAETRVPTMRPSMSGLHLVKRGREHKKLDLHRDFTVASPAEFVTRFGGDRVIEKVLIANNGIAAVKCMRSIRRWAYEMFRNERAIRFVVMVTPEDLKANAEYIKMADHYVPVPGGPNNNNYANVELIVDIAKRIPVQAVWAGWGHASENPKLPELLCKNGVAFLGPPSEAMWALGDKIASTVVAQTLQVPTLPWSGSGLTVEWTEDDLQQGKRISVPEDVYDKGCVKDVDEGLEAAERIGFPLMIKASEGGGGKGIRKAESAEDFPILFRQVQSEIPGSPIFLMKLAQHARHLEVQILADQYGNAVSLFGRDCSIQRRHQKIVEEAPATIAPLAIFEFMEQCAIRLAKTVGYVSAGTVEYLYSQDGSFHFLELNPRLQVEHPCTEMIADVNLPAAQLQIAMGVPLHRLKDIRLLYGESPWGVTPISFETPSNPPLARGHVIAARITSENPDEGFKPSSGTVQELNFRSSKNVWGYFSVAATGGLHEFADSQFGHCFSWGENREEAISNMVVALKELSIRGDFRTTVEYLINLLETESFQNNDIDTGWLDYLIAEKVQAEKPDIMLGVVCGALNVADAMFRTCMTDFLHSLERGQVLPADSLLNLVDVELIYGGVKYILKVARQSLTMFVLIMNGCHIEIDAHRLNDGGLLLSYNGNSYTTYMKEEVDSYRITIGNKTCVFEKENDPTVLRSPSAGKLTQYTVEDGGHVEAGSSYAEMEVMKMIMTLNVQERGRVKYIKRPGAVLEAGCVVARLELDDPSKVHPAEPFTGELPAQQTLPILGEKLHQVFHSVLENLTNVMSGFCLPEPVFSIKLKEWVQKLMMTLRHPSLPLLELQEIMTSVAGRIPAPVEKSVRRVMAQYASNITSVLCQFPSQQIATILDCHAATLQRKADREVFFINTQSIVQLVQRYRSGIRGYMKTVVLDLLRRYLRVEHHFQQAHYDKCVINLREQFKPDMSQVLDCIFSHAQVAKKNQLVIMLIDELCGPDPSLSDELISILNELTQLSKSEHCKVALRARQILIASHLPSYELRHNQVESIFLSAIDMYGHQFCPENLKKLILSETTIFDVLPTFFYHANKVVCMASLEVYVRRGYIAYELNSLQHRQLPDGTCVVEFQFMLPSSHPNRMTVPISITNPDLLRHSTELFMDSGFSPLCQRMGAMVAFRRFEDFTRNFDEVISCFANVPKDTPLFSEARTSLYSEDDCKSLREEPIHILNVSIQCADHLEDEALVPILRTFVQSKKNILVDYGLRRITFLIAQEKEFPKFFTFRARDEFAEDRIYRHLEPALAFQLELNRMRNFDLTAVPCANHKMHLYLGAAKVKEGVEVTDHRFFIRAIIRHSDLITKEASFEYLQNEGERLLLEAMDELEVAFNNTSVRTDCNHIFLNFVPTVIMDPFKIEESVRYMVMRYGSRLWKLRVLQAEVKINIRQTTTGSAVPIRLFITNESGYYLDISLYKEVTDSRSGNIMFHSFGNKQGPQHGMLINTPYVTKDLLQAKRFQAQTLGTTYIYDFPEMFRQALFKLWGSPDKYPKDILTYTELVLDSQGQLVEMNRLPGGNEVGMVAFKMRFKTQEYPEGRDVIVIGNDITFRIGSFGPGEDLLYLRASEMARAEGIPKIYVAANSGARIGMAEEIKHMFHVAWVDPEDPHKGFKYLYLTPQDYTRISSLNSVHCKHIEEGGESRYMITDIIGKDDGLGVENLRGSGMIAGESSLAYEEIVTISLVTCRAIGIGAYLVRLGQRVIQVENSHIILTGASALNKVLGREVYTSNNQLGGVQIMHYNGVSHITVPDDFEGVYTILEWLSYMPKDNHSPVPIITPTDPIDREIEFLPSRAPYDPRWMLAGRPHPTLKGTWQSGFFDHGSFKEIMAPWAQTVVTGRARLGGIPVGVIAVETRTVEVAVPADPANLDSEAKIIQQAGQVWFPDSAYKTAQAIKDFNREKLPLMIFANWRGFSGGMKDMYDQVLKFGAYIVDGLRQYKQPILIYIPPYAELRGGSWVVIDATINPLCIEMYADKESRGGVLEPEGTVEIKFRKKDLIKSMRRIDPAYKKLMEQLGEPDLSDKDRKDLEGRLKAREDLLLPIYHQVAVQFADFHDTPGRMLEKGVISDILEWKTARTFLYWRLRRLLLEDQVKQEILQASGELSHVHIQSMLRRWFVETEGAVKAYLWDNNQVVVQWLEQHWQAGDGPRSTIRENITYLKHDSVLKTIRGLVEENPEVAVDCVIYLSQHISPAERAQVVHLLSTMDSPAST
Experimental: as §1
[3] Preparation of rhACC2. Human ACC2 inhibition was measured using purified recombinant human ACC2 (hrACC2). Briefly, a full length Cytomax clone of ACC2 was purchased from Cambridge Bioscience Limited and was sequenced and subcloned into PcDNA5 FRT TO-TOPO (Invitrogen, Carlsbad, Calif.). The ACC2 was expressed in CHO cells by tetracycline induction and harvested in 5 liters of DMEM/F12 with glutamine, biotin, hygromycin and blasticidin with 1 μg/mL tetracycline (Invitrogen, Carlsbad, Calif.). The conditioned medium containing ACC2 was then applied to a Softlink Soft Release Avidin column (Promega, Madison, Wis.) and eluted with 5 mM biotin. 4 mgs of ACC2 were eluted at a concentration of 0.05 mg/mL (determined by A280) with an estimated purity of 95% ([…]). The purified ACC2 was dialyzed in 50 mM Tris, 200 mM NaCl, 4 mM DTT, 2 mM EDTA, and 5% glycerol. The pooled protein was frozen and stored at −80° C., with no loss of activity upon thawing. For measurement of ACC2 activity and assessment of ACC2 inhibition, test compounds were dissolved in DMSO and added to the rhACC2 enzyme as a 5× stock with a final DMSO concentration of 1%.
[4] Measurement of human ACC2 inhibition. hACC2 was assayed in a Costar #3676 (Costar, Cambridge, Mass.) 384-well plate using the Transcreener ADP detection FP assay kit (Bellbrook Labs, Madison, Wis.) using the manufacturer's recommended conditions for a 50 uM ATP reaction. The final conditions for the assay were 50 mM HEPES, pH 7.2, 5 mM MgCl2, 5 mM tripotassium citrate, 2 mM DTT, 0.1 mg/mL BSA, 30 μM acetyl-CoA, 50 μM ATP, and 8 mM KHCO3. Typically, a 10 μl reaction was run for 50 min at 25° C., and 10 μl of Transcreener stop and detect buffer was added and the combination incubated at room temp for an additional 1 hour. The data was acquired on an Envision Fluorescence reader (Perkinelmer) using a 620 excitation Cy5 FP general dual mirror, 620 excitation Cy5 FP filter, 688 emission (S) and a 688 (P) emission filter.
as §2

Row | SMILES | IC50 [1] [nM] | IC50 [2] [nM]
1 | CC(C)(C)n1cc2c(n1)C(=O)CC1(CCN(C(=O)c3ccc4[nH]c(C(N)=O)cc4c3)CC1)C2 [Example 32] | 8.1 | 1.5
2 | CC(C)(C)n1cc2c(n1)C(=O)CC1(CCN(C(=O)c3ccc4cc(C(N)=O)[nH]c4c3)CC1)C2 [Example 34] | 8.1 | 2.8
3 | CC(C)(C)n1cc2c(n1)C(=O)CC1(CCN(C(=O)c3ccc4[nH]c(N)nc4c3)CC1)C2 [Example 35] | 12 | 1.4
4 | CNc1nc2cc(C(=O)N3CCC4(CC3)CC(=O)c3nn(C(C)(C)C)cc3C4)ccc2[nH]1 [Example 39] | 9.8 | 1.5
5 | CC(C)(C)n1cc2c(n1)C(=O)CC1(CCN(C(=O)c3ccc4c(C#N)n[nH]c4c3)CC1)C2 [Example 41] | 18 | 3.7
6 | CC(C)(C)n1cc2c(n1)C(=O)CC1(CCN(C(=O)c3cnc4ccc(C(N)=O)cc4c3)CC1)C2 [Example 44] | 31 | 5.4
7 | CC(C)(C)n1cc2c(n1)C(=O)CC1(CCN(C(=O)c3cnc4c(C(N)=O)c[nH]c4c3)CC1)C2 [Example 45, 6-[(2-tert-butyl-7-oxo-2,4,6,7-tetrahydro-1′H-spiro[indazole-5,4′-piperidin]-1′-yl)carbonyl]-1H-pyrrolo[3,2-b]pyridine-3-carboxamide] | 23 | 2.8
8 | CC(C)(C)n1cc2c(n1)C(=O)CC1(CCN(C(=O)c3cnc4ccc(OCC(N)=O)cc4c3)CC1)C2 [Example 46, 2-({3-[(2-tert-butyl-7-oxo-2,4,6,7-tetrahydro-1′H-spiro[indazole-5,4′-piperidin]-1′-yl)carbonyl]quinolin-6-yl}oxy)acetamide] | 14 | 3.8
9 | O=C1CC2(CCN(C(=O)c3ccc4[nH]ncc4c3)CC2)Cc2cn(C34CC(C3)C4)nc21 [Example 48, 2-bicyclo[1.1.1]pent-1-yl-1′-(1H-indazol-5-ylcarbonyl)-2,4-dihydrospiro[indazole-5,4′-piperidin]-7(6H)-one] | 32 | 5.6
10 | NC(=O)c1n[nH]c2ccc(C(=O)N3CCC4(CC3)CC(=O)c3c(cnn3C35CC(C3)C5)C4)cc12 [Example 49, 5-[(1-bicyclo[1.1.1]pent-1-yl-7-oxo-1,4,6,7-tetrahydro-1′H-spiro[indazole-5,4′-piperidin]-1′-yl)carbonyl]-1H-indazole-3-carboxamide] | 12 | 8.4

The next compounds have a lower IC50 [1] than those just listed; values first:

Row | IC50 [1] [nM] | IC50 [2] [nM] | SMILES
11 | 3.1 | 1 | CC(C)(C)n1cc2c(n1)C(=O)CC1(CCN(C(=O)c3ccc4[nH]cc(C(N)=O)c4c3)CC1)C2 [Example 33]
12 | 4 | 1.7 | CCNC(=O)c1n[nH]c2ccc(C(=O)N3CCC4(CC3)CC(=O)c3nn(C(C)(C)C)cc3C4)cc12 [Example 36]
13 | 2.9 | 1.3 | CNC(=O)c1n[nH]c2ccc(C(=O)N3CCC4(CC3)CC(=O)c3nn(C(C)(C)C)cc3C4)cc12 [Example 37]
14 | 4.3 | 1.1 | CC(C)(C)n1cc2c(n1)C(=O)CC1(CCN(C(=O)c3ccc4[nH]nc(C(=O)NCC(F)(F)F)c4c3)CC1)C2 [Example 38]
15 | 2.2 | 1.3 | CNc1ccc2ccc(C(=O)N3CCC4(CC3)CC(=O)c3nn(C(C)(C)C)cc3C4)cc2n1 [Example 40]
16 | 6.6 | 1.8 | CC(C)(C)n1cc2c(n1)C(=O)CC1(CCN(C(=O)c3cnc4c(Cl)c[nH]c4c3)CC1)C2 [Example 42]
17 | 6.4 | 2.8 | CC(C)(C)n1cc2c(n1)C(=O)CC1(CCN(C(=O)c3ccc4[nH]nc(C#N)c4c3)CC1)C2 [Example 43]
18 | 5.3 | 1.3 | CC(C)(C)n1cc2c(n1)C(=O)CC1(CCN(C(=O)c3ccc4ccc(N)nc4c3)CC1)C2 [Example 47, 1′-[(2-aminoquinolin-7-yl)carbonyl]-2-tert-butyl-2,4-dihydrospiro[indazole-5,4′-piperidin]-7(6H)-one]
